Assay results: patent publication EP4548971A1, “1,4-BENZOTHIAZEPINES AND RELATED COMPOUNDS WITH CYCLOPROPANOL GROUPS AS MULTI-TARGETED DRUGS” (Georg-August-Universität Göttingen Stiftung Öffentlichen …, priority 2023, dated 2025)

What was measured:
Format in all cases: cell-based
WT RyR2 = target: T1, WT RyR2 (Mus musculus, UniProt E9Q401); assay: Time-lapse [Ca2+]ER assay (RyR2 R-CEPIA1er assay) in HEK-293 cells; details: 25 µM, vs. 0.1 v/v% DMSO
T1 construct: expressed in transfected cells
Protocol: HEK-293 cells stably expressing R-CEPIA1er and WT RyR2 (generous gift from Takashi Murayama, Juntendo University School of Medicine, Tokyo) were cultured in Dulbecco's Modified Eagle medium (DMEM, Thermo Fisher Scientific, Darmstadt, Germany) supplemented with 10% fetal bovine serum (FBS, Thermo Fisher Scientific, Darmstadt, Germany), 0.9% Penicillin/Streptomycin (Merck KGaA, Darmstadt, Germany), 15ug/mL Blasticidine (Invivogen, Toulouse, France), 100 µg/mL Hygromycin (Merck KGaA, Darmstadt, Germany) and 400 µg/mL G418 (Thermo Fisher Scientific, Darmstadt, Germany) in a humidified 5% COz incubator at 37 °C. To induce the expression of WT RyR2 in the endoplasmic reticulum (ER), 2 µg/mL Doxycycline (Merck KGaA, Darmstadt, Germany) was added 24 h before experiments.
The fluorescent plate reader [Ca^2+]ER assay was performed according to the slightly modified protocol of Murayama & Kurebayashi [T. Murayama, N. Kurebayashi, Assays for Modulators of Ryanodine Receptor (RyR)/Ca(2+) Release Channel Activity for Drug Discovery for Skeletal Muscle and Heart Diseases. Curr. Protoc. […] After the cells were inducted with Doxycycline for 24 h, changes in ER calcium concentrations [Ca^2+]ER were measured on a multiwell plate reader TECAN Spark 20M at 37 °C. The 1000 × stock solutions of the test compounds were prepared in DMSO. Briefly, the culture medium was removed and 100 µl of Tyrode's solution containing 2 mM CaCl2 was added to the cells. The time courses were recorded in each well. Fluorescence was evoked by 560 nm excitation wavelength and collected in a bottom-read mode at 610 nm. Data was recorded every 10 s, exposure - 20 flashes, excitation bandwidth - 20 nm, emission bandwidth - 20 nm. 100 µl of 0 - 100 µM solution of test compound in Tyrode's solution containing 2 mM CaCh was injected in each well (speed 100 µl/s) at the 90 s time point. […] The 0.1 v/v% DMSO and 2 mM CaCh Tyrode's solution was used as a control.
The dose response curves were calculated using the software package GraphPad Prism version 8.3.1. (GraphPad Software, Inc.). All data are presented as mean ± S.D. in 3 independent experiments. Y=Bottom + (Top-Bottom)/(1+10^((LogEC50-X)*HillSlope)) was used where HillSlope describes the steepness of the curve, Top and Bottom are plateaus in the units of the Y axis.
The inventors measured changes in Ca^2+ levels in the endoplasmic reticulum (ER) of HEK-293 cells with inducible expression of wild-type RyR2 (WT RyR2) [T. Murayama, N. Kurebayashi, M. Ishigami-Yuasa, S. Mori, Y. Suzuki, R. Akima, H. Ogawa, J. Suzuki, K. Kanemaru, H. Oyamada, Y. Kiuchi, M. Iino, H. Kagechika, T. Sakurai, Efficient High-Throughput Screening by Endoplasmic Reticulum Ca(2+) Measurement to Identify Inhibitors of Ryanodine Receptor Ca(2+)-Release Channels. […] The cells additionally stably express the Ca^2+ fluorescence indicator R-CEPIA1er, which is a genetically encoded sensor protein of Ca^2+ in the ER ([Ca^2+]ER) [T. Murayama, N. Kurebayashi, Assays for Modulators of Ryanodine Receptor (RyR)/Ca(2+) Release Channel Activity for Drug Discovery for Skeletal Muscle and Heart Diseases. Curr. Protoc.
The fluorescence ratio F/F0 was calculated, where F0 - is the average fluorescence for the first 90 s, F - is the average fluorescence for the last 100 s, and normalized.

[1] = system: saponin-permeabilized ventricular cardiomyocytes (sp-vCM) from WT mice; assay: Ca2+ wave decay in saponin-permeabilized ventricular cardiomyocytes, WT mice; details: 10 µM, result in words
Source text: (§1) • Figure 1: Synthesis scheme showing the synthesis of multifunctional compounds with cyclopropanol residues based on 1,4 -benzothiazepines. The respective reaction conditions (a) to (i) are as follows: (a) Jones reagent, aceton; (b) H2SO4, EtOH; (c) EtMgBr, Ti(OiPr)4, EtzO; (d) t-BuMe2SiOSO2CF3, 2,6-lutidine, DCM; (e) Hz, Pd/C, THF; (f) Dess-Martin reagent, DCM; (g) K2CO3, 1,4-dioxane; (h) N2H4*H2O, EtOH; (i) Na(CH3COO)3BH, 1,2-dichloroethane; (j) NaH, DMF; (k) aq. HF (55%), MeCN or 1 M n-Bu4NF in THF or KF, Et3N*HCl, MeOH. m,n = 2-8. • Figure 2: Synthesis scheme showing the synthesis of multifunctional compounds with cyclopropanol residues based on the "open" analogs 1,4 -benzothiazepines (i.e. 3-[(4-methoxyphenyl)oxy]-and 3-[(4-methoxyphenylthio)]propane-1-amine derivatives). […] Values represent the mean ± S.D., *** P < 0.0005, **** P < 0.0001 vs. DMSO by unpaired t test; n = 6 - 28. • Figure 6: Time-lapse fluorescence measurements using TECAN Spark 20M plate reader with HEK293 cells expressing WT RyR2 and R-CEPIA1er indicator. […] Fluorescence ratio F/F0, where F0 - average fluorescence signal for the first 90 seconds, F- average fluorescence signal for the last 100 s, was taken for the calculations. […] Data sets were analyzed by unpaired Student's t-test. n.s. non-significant with P=0.59 for Dan, **, P<0.01 with P=0.003 for S36, and *, P<0.05 with P=0.019 for GM1869; (D, E, F) Relative changes in the decay time tau of Ca2+ transients from spontaneous Ca2+ waves (in control/drug) by Dan (D, 10µM), S36 (E, 10 µM), and GM1869 (F, 10 µM) in cardiomyocytes from WT and RyR2R2474S/+ mice. […] Rise times represent the tau values calculated by a mono-exponential fit of the Ca2+ transients from start to the peak of the signal. Ca2+ transients were recorded in control conditions and every 2 min (S36) or 4 min (GM1869) after drug application. **, P = 0.0065 for S36; ****, P = 0.000019 for GM1869, evaluated by paired Student's t-test. […] Decay times represent the tau values calculated by a mono-exponential fit of the Ca2+ transients from half maximum to baseline of the signal. […]

[2] = system: saponin-permeabilized ventricular cardiomyocytes (sp-vCM) from RyR2R2474S/+ mice; assay: Ca2+ wave decay in saponin-permeabilized ventricular cardiomyocytes, RyR2R2474S/+ mice; details: 10 µM, result in words
Source text: as §1

T1 sequence (E9Q401 whole entry): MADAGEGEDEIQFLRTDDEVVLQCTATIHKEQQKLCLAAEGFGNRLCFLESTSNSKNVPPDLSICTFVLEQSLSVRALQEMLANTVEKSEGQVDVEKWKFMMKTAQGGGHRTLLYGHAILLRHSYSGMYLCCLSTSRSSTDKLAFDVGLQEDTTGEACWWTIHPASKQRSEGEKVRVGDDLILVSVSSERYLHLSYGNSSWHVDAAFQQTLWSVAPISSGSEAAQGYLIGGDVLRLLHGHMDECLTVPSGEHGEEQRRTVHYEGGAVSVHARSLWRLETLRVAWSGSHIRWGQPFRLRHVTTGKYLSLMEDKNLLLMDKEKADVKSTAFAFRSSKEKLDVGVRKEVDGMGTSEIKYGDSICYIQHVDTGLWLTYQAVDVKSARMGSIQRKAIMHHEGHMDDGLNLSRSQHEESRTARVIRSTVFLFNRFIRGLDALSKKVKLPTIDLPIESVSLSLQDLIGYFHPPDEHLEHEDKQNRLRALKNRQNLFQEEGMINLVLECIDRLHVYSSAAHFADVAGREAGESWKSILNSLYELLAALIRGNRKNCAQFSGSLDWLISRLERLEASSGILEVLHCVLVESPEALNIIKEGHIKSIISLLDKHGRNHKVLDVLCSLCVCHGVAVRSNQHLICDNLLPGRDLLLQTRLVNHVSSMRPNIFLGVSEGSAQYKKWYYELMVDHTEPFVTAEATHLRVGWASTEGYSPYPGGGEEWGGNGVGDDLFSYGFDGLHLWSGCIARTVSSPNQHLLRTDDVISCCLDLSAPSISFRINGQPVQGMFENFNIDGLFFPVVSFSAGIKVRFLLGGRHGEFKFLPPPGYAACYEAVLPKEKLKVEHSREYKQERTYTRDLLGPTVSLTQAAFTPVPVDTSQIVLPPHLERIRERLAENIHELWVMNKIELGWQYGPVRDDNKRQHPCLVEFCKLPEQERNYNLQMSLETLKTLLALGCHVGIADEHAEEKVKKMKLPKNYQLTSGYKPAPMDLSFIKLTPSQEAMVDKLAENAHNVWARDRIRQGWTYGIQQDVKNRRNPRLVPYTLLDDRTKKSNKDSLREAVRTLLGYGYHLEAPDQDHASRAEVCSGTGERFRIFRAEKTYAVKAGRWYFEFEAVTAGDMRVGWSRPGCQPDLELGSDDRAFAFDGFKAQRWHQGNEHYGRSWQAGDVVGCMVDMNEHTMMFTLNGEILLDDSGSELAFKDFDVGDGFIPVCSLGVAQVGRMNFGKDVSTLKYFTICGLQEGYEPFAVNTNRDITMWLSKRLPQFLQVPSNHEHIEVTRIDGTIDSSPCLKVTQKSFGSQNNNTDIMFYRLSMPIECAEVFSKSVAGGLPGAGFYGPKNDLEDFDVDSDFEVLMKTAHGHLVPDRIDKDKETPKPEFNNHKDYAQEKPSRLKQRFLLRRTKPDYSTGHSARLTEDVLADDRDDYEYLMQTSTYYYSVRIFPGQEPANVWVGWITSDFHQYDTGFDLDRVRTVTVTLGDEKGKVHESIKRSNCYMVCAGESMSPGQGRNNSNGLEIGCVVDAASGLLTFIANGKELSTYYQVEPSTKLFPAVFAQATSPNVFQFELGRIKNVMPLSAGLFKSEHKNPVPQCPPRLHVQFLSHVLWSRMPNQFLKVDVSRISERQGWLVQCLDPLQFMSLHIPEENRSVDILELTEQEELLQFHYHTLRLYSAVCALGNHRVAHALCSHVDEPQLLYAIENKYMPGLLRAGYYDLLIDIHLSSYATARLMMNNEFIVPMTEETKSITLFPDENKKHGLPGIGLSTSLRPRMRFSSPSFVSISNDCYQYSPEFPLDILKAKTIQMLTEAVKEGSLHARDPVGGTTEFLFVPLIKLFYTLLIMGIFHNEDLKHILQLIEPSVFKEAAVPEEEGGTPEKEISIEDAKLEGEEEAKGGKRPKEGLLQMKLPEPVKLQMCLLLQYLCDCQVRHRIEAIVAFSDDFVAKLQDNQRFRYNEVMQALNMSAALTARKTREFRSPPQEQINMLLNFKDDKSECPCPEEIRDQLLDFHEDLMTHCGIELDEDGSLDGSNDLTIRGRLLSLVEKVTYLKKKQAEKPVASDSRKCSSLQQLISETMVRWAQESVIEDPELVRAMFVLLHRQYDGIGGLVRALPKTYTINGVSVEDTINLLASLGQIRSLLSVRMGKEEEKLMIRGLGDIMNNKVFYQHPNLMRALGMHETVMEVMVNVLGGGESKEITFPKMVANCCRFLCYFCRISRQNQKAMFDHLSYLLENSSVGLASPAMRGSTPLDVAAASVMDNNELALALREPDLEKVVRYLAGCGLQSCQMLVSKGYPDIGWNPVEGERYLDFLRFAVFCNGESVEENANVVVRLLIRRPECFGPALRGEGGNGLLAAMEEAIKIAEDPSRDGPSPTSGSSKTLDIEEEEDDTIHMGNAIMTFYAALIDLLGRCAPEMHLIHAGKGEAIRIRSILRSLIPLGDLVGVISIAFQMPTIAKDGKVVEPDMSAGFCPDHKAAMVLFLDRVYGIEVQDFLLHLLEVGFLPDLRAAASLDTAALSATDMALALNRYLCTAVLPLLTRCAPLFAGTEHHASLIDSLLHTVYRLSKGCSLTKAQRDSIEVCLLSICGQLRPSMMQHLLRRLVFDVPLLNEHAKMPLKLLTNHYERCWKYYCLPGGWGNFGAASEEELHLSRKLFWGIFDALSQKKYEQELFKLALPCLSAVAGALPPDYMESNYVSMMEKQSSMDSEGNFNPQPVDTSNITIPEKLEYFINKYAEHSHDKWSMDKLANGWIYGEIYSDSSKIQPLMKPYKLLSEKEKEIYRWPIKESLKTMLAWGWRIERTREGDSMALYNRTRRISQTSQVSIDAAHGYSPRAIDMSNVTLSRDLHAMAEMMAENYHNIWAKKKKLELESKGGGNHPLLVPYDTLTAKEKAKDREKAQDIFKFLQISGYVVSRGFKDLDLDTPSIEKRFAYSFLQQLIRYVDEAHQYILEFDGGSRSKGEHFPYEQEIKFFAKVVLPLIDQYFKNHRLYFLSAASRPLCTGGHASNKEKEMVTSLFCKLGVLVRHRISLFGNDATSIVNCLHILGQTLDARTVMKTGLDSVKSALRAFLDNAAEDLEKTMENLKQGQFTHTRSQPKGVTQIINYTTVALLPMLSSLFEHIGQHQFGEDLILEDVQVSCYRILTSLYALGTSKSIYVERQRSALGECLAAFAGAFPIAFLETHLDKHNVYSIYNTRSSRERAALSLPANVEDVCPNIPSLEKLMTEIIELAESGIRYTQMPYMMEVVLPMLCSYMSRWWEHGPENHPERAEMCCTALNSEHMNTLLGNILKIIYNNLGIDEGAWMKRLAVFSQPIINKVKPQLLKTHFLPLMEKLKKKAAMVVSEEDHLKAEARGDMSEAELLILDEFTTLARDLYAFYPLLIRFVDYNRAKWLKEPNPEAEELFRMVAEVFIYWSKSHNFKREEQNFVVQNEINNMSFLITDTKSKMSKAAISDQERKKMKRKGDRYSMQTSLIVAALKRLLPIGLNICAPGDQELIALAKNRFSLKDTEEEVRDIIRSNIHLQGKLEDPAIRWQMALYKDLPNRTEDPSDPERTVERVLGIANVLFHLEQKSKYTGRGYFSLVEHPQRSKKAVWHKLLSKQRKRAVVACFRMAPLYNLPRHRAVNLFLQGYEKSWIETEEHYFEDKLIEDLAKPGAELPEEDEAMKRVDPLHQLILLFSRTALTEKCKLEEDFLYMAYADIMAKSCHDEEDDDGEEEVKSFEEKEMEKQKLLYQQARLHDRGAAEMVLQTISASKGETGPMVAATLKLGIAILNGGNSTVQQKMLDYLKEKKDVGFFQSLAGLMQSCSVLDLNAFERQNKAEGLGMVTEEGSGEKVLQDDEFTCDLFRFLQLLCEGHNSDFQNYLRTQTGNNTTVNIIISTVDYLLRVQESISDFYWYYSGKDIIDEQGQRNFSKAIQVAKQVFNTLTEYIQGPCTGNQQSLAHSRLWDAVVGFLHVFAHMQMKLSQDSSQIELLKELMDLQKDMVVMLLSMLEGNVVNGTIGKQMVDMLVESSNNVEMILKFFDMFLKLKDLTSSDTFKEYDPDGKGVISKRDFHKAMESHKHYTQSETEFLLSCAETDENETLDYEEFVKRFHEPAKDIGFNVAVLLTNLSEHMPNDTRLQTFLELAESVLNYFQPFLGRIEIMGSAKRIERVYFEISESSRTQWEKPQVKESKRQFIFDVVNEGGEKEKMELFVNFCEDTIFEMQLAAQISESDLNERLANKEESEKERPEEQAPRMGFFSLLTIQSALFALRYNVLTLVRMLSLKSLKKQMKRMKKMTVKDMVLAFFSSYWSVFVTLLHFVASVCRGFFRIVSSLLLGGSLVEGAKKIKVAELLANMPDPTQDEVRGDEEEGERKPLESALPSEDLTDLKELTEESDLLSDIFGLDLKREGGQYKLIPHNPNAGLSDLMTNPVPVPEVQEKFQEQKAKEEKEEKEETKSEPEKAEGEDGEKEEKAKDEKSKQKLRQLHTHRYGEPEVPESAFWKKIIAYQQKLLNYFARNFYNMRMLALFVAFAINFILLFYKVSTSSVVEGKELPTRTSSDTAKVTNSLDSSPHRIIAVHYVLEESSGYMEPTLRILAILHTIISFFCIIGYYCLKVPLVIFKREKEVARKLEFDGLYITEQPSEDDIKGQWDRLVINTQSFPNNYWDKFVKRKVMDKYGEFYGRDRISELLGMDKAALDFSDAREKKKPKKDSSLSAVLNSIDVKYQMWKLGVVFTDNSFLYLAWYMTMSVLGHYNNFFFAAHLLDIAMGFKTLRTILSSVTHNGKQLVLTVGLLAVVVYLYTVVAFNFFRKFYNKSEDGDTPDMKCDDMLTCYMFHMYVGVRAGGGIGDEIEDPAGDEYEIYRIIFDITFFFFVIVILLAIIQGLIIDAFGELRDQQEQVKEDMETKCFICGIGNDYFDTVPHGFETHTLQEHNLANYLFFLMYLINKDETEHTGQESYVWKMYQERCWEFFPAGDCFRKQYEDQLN

How did the “effect on [Ca^2+]ER (R-CEPIA1er fluorescence), in words” value (WT RyR2) turn out when `O=C1CN(/N=C/c2ccc(-c3ccc([N+](=O)[O-])cc3)o2)C(O)=N1` [dantrolene] was run?
The value was “increase in R-CEPIA1er fluorescence”.

And the “Relative changes in the decay time tau of Ca2+ transients from spontaneous Ca2+ waves (in control/drug)” value [1]?
The value was “significantly above 1”.

And the “Relative changes in the decay time tau of Ca2+ transients from spontaneous Ca2+ waves (in control/drug)” value [2]?
Its value is “significantly above 1”.
